Measurements: patent US10544149B2, “Bicyclic alkyne derivatives and uses thereof” (Agency for Science, Technology and Research, priority 2013, dated 2020)

Assays:
MNK1 = MNK1 (Homo sapiens, UniProt Q9BUB5); assay: MNK1 enzymatic assay; assay type: biochemical
[1] = tested on: eIF4e phosphorylation in Hela cell line; assay: eIF4e phosphorylation inhibition in Hela cell line; assay type: cell-based; details: Homo sapiens, cellular
MNK2 = MNK2 (Homo sapiens, UniProt Q9HBH9); assay: MNK2 enzymatic assay; assay type: biochemical
Sequence of MNK2 (Q9HBH9 whole entry): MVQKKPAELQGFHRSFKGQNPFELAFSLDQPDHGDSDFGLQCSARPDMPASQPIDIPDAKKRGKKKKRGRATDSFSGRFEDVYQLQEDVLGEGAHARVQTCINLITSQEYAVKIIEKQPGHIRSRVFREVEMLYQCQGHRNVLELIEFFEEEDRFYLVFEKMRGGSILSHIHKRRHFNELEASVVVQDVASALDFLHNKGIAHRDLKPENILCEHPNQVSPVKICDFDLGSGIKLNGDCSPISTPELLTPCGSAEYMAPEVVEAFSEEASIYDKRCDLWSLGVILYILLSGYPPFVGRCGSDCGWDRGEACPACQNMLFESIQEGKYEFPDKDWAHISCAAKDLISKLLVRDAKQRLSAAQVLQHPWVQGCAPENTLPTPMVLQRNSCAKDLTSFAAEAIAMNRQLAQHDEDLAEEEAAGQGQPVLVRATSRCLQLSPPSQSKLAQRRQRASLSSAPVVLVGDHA

Sequence of MNK1 (Q9BUB5 whole entry): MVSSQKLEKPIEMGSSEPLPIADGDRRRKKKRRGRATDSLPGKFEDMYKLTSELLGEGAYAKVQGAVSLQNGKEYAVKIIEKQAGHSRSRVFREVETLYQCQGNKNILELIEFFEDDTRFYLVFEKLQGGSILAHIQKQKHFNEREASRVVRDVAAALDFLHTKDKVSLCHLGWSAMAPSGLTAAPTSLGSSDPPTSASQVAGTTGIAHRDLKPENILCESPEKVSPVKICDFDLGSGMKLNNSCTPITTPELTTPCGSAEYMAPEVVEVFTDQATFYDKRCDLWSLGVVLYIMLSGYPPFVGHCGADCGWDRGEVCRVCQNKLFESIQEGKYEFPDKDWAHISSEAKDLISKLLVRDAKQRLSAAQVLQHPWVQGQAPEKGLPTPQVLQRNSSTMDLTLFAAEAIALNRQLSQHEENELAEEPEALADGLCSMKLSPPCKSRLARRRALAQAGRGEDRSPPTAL

IC50 (MNK1)	IC50 [1]	IC50 (MNK2)	Structure (SMILES)
< 0.5 µM	< 5 µM	< 0.5 µM	Cc1ccccc1Nc1cc(C#Cc2cnc3ccc(-c4ccc(C(=O)N5CCOCC5)cc4)nn23)ccn1 [Example 052, morpholino(4-(3-((2-(o-tolylamino)pyridin-4-yl)ethynyl)imidazo[1,2-b]pyridazin-6-yl)phenyl)methanone]
< 0.5 µM	< 5 µM	< 0.5 µM	O=C(c1ccc(-c2ccc3ncc(C#Cc4ccnc(Nc5nccs5)c4)n3n2)cc1)N1CCOCC1 [Example 053, morpholino(4-(3-((2-(thiazol-2-ylamino)pyridin-4-yl)ethynyl)imidazo[1,2-b]pyridazin-6-yl)phenyl)methanone]
< 0.5 µM	< 5 µM	< 0.5 µM	O=C(c1ccc(-c2ccc3ncc(C#Cc4ccnc(Nc5ccncn5)c4)n3n2)cc1)N1CCOCC1 [Example 054, morpholino(4-(3-((2-(pyrimidin-4-ylamino)pyridin-4-yl)ethynyl)imidazo[1,2-b]pyridazin-6-yl)phenyl)methanone]
< 0.5 µM	< 5 µM	< 0.5 µM	O=C(c1ccc(-c2ccc3ncc(C#Cc4ccnc(Nc5ccccc5C(F)(F)F)c4)n3n2)cc1)N1CCOCC1 [Example 055, morpholino(4-(3-((2-((2-(trifluoromethyl)phenyl)amino)pyridin-4-yl)ethynyl)imidazo[1,2-b]pyridazin-6-yl)phenyl)methanone]
< 0.5 µM	< 5 µM	< 0.5 µM	O=C(c1ccc(-c2ccc3ncc(C#Cc4ccnc(Nc5ncccn5)c4)n3n2)cc1)N1CCOCC1 [Example 056, morpholino(4-(3-((2-(pyrimidin-2-ylamino)pyridin-4-yl)ethynyl)imidazo[1,2-b]pyridazin-6 yl)phenyl)methanone]
< 0.5 µM	< 5 µM	< 0.5 µM	Cc1cccc(Nc2cc(C#Cc3cnc4ccc(-c5ccc(C(=O)N6CCOCC6)cc5)nn34)ccn2)c1 [Example 057, morpholino(4-(3-((2-(m-tolylamino)pyridin-4-yl)ethynyl)imidazo[1,2-b]pyridazin-6-yl)phenyl)methanone]
< 0.5 µM	< 5 µM	< 0.5 µM	Cc1ccc(Nc2cc(C#Cc3cnc4ccc(-c5ccc(C(=O)N6CCOCC6)cc5)nn34)ccn2)cc1 [Example 058, morpholino(4-(3-((2-(p-tolylamino)pyridin-4-yl)ethynyl)imidazo[1,2-b]pyridazin-6-yl)phenyl)methanone]
< 0.5 µM	< 5 µM	< 0.5 µM	CC(C)c1ccccc1Nc1cc(C#Cc2cnc3ccc(-c4ccc(C(=O)N5CCOCC5)cc4)nn23)ccn1 [Example 059, (4-(3-((2-(2-isopropylphenylamino)pyridin-4-yl)ethynyl)imidazo[1,2-b]pyridazin-6-yl)phenyl)(morpholino)methanone]
< 0.5 µM	< 5 µM	< 0.5 µM	O=C(c1ccc(-c2ccc3ncc(C#Cc4ccnc(Nc5ccccc5-c5ccccc5)c4)n3n2)cc1)N1CCOCC1 [Example 060, (4-(3-((2-(biphenyl-2-ylamino)pyridin-4-yl)ethynyl)imidazo[1,2-b]pyridazin-6-yl)phenyl)(morpholino)methanone]
< 0.5 µM	< 5 µM	< 0.5 µM	Cc1ccccc1C(=O)Nc1cc(C#Cc2cnc3ccc(-c4ccc(C(=O)N5CCOCC5)cc4)nn23)ccn1 [Example 063, 2-methyl-N-(4-((6-(4-(morpholine-4-carbonyl)phenyl)imidazo[1,2-b]pyridazin-3-yl)ethynyl)pyridin-2-yl)benzamide]
< 0.5 µM	< 5 µM	< 0.5 µM	O=C(Nc1cc(C#Cc2cnc3ccc(-c4ccc(C(=O)N5CCOCC5)cc4)nn23)ccn1)c1ccncc1 [Example 064, N-(4-((6-(4-(morpholine-4-carbonyl)phenyl)imidazo[1,2-b]pyridazin-3-yl)ethynyl)pyridin-2-yl)isonicotinamide]
< 0.5 µM	< 5 µM	< 0.5 µM	O=C(Nc1cc(C#Cc2cnc3ccc(-c4ccc(C(=O)N5CCOCC5)cc4)nn23)ccn1)c1cccnc1 [Example 065, N-(4-((6-(4-(morpholine-4-carbonyl)phenyl)imidazo[1,2-b]pyridazin-3-yl)ethynyl)pyridin-2-yl)nicotinamide]
< 0.5 µM	< 5 µM	< 0.5 µM	O=C(c1ccc(-c2ccc3ncc(C#Cc4ccnc(-c5ccccc5)c4)n3n2)cc1)N1CCOCC1 [Example 070, morpholino(4-(3-((2-phenylpyridin-4-yl)ethynyl)imidazo[1,2-b]pyridazin-6-yl)phenyl)methanone]
< 0.5 µM	< 5 µM	< 0.5 µM	CN(c1ccccc1)c1cc(C#Cc2cnc3ccc(-c4ccc(C(=O)N5CCOCC5)cc4)nn23)ccn1 [Example 071, (4-(3-((2-(methyl(phenyl)amino)pyridin-4-yl)ethynyl)imidazo[1,2-b]pyridazin-6-yl)phenyl) (morpholino) methanone]
< 0.5 µM	< 5 µM	< 0.5 µM	O=C(c1ccc(-c2ccc3ncc(C#Cc4cc(NCc5ccccc5)nc5[nH]ccc45)n3n2)cc1)N1CCOCC1 [Example 073, (4-(3-((6-(benzylamino)-1H-pyrrolo[2,3-b]pyridin-4-yl)ethynyl)imidazo[1,2-b]pyridazin-6-yl)phenyl)(morpholino)methanone]
< 0.5 µM	< 5 µM	< 0.5 µM	NC(=O)c1ccc(-c2ccc3ncc(C#Cc4ccnc(N)c4)n3n2)cc1 [Example 074, 4-(3-((2-aminopyridin-4-yl)ethynyl)imidazo[1,2-b]pyridazin-6-yl)benzamide]
< 0.5 µM	< 5 µM	< 0.5 µM	C(#Cc1cnc2ccc(-c3ccc(CN4CCOCC4)cc3)nn12)c1ccnc2[nH]ccc12 [Example 075, 4-(4-(3-((1H-pyrrolo[2,3-b]pyridin-4-yl)ethynyl)imidazo[1,2-b]pyridazin-6-yl)benzyl)morpholine]
< 0.5 µM	< 5 µM	< 0.5 µM	CN1CCN(C(=O)c2ccc(-c3cn4c(C#Cc5ccccc5)cnc4cn3)cc2)CC1 [Example 089, (4-methylpiperazin-1-yl) (4-(3-(phenylethynyl)imidazo[1,2-a]pyrazin-6-yl)phenyl)methanone]
< 0.5 µM	< 5 µM	< 0.5 µM	O=C(c1ccc(-c2ccc3ncc(C#Cc4ccncc4)n3c2)cc1)N1CCOCC1 [Example 094]
< 0.5 µM	< 5 µM	< 0.5 µM	Cc1cnccc1C#Cc1cnc2ccc(-c3ccc(C(=O)N4CCOCC4)cc3)cn12 [Example 095, (4-(3-((3-methylpyridin-4-yl)ethynyl)imidazo[1,2-a]pyridin-6-yl)phenyl) (morpholino)methanone]
< 0.5 µM	< 5 µM	< 0.5 µM	Nc1cc(C#Cc2cnc3ccc(-c4ccc(C(=O)N5CCOCC5)cc4)cn23)ccn1 [Example 096]
< 0.5 µM	< 5 µM	< 0.5 µM	O=C(c1ccc(-c2ccc3ncc(C#Cc4ccnc5[nH]ncc45)n3c2)cc1)N1CCOCC1 [Example 097, (4-(3-((1H-pyrazolo[3,4-b]pyridin-4-yl)ethynyl)imidazo[1,2-a]pyridin-6-yl)phenyl)(morpholino)methanone]
< 0.5 µM	< 5 µM	< 0.5 µM	Nc1cc(C#Cc2cnc3ccc(-c4ccc(C(=O)N5CCOCC5)cc4)cn23)c2cc[nH]c2n1 [Example 098, (4-(3-((6-amino-1H-pyrrolo[2,3-b]pyridin-4-yl)ethynyl)imidazo[1,2-a]pyridin-6-yl)phenyl)(morpholino)methanone]
< 0.5 µM	< 5 µM	< 0.5 µM	O=C(c1ccc(-c2ccc3ncc(C#Cc4ccnc5[nH]ccc45)n3c2)cc1)N1CCOCC1 [Example 099, (4-(3-((1H-pyrrolo[2,3-b]pyridin-4-yl)ethynyl)imidazo[1,2-a]pyridin-6-yl)phenyl)(morpholino)methanone]
< 0.5 µM	< 5 µM	< 0.5 µM	CC(=O)Nc1cc(C#Cc2cnc3ccc(-c4ccc(C(=O)N5CCNCC5)cc4)cn23)ccn1 [Example 101, N-(4-((6-(4-(piperazine-1-carbonyl)phenyl)imidazo[1,2-a]pyridin-3-yl)ethynyl)pyridin-2-yl)acetamide]
< 0.5 µM	< 5 µM	< 0.5 µM	Cc1c(N)cccc1Nc1cc(C#Cc2cnc3ccc(-c4ccc(C(=O)N5CCNCC5)cc4)cn23)ccn1 [Example 102, (4-(3-((2-(3-amino-2-methylphenylamino)pyridin-4-yl)ethynyl)imidazo[1,2-a]pyridin-6-yl)phenyl) (piperazin-1-yl)methanone]
< 0.5 µM	< 5 µM	< 0.5 µM	O=C(Nc1cc(C#Cc2cnc3ccc(-c4ccc(C(=O)N5CCNCC5)cc4)cn23)ccn1)c1ccccc1 [Example 103, (N-(4-((6-(4-(piperazine-1-carbonyl)phenyl)imidazo[1,2-a]pyridin-3-yl)ethynyl)pyridin-2-yl)benzamide)]
< 0.5 µM	< 5 µM	< 0.5 µM	O=C(c1ccc(-c2ccc3ncc(C#Cc4ccnc5[nH]ncc45)n3c2)cc1)N1CCNCC1 [Example 104, (4-(3-((1H-pyrazolo[3,4-b]pyridin-4-yl)ethynyl)imidazo[1,2-a]pyridin-6-yl)phenyl) (piperazin-1-yl)methanone]
< 0.5 µM	< 5 µM	< 0.5 µM	O=C(c1ccc(-c2ccc3ncc(C#Cc4ccnc(Nc5cccnc5)c4)n3c2)cc1)N1CCNCC1 [Example 105, piperazin-1-yl(4-(3-((2-(pyridin-3-ylamino)pyridin-4-yl)ethynyl)imidazo[1,2-a]pyridin-6-yl)phenyl)methanone]
< 0.5 µM	< 5 µM	< 0.5 µM	Cc1ccccc1Nc1cc(C#Cc2cnc3ccc(-c4ccc(C(=O)N5CCNCC5)cc4)cn23)ccn1 [Example 106, piperazin-1-yl(4-(3-((2-(o-tolylamino)pyridin-4-yl)ethynyl)imidazo[1,2-a]pyridin-6-yl)phenyl)methanone]
